Source: patent publication US6809070B2, “Toilet bar having a latent acidifier” (Unilever Home & Personal Care USA, division of Conopco, Inc., priority 2001, dated 2004)
Like-named read-outs stand apart in the source and are kept apart here.

Key:
[1] = Aqueous slurry pH (10% slurry, 25 C); type: physicochemical
Description: Various inventive and comparative compounds were formulated with three separate toilet bar bases, 1, 2, and 3 at the 10% by wt. level and their aqueous slurry pH (see method below) was compared to a control shown in table 1. Inventive latent acidifiers are designated “I” and comparative compounds are designated “C”. The bar bases were formulated by blending all ingredients except the latent acidifier for about 30-40 minutes at temperatures of 180-230 F. After that, the latent acidifier is added and mixed for another few minutes until a uniform mixture is obtained. […] The latent acidifier could also be added in the chip mixer after the batch has been cooled and solidified in a spray dryer or a chill roll. This is followed by extrusion and stamping into a bar.
Method for Measuring Aqueous Slurry pH
Nine grams of the base formula and one gram of the latent acidifier (or a comparative compound) were blended together with 90 g of water to create a 10% slurry. The pH of the slurry was then measured at 25 C.

[2] = pH of 1% by wt. aqueous solutions; type: physicochemical
[3] = compound at 10% by wt. in toilet bar Base 1, 10% slurry, 25 C
[4] = compound at 10% by wt. in toilet bar Base 2, 10% slurry, 25 C
[5] = compound at 10% by wt. in toilet bar Base 3, 10% slurry, 25 C
[6] = 1% by wt. aqueous solution of the compound

| Compound | Aqueous slurry pH, Base 1 [1] | Aqueous slurry pH, Base 2 [1] | Aqueous slurry pH, Base 3 [1] | pH of 1% Solution ([2]; pH 1) | Aqueous slurry pH of bars [1] | Latent acidification effect [1] | Aqueous slurry pH, Base 1 [1, 3] | Aqueous slurry pH, Base 2 [1, 4] | Aqueous slurry pH, Base 3 [1, 5] | pH of 1% Solution [2, 6] |
| --- | --- | --- | --- | --- | --- | --- | --- | --- | --- | --- |
| O=C([O-])[O-].[Ca+2] [Calcium Carbonate, reference compound] | 7.0 | 9.0 | 10.6 | 9.2 | – | – | – | – | – | – |
| N.N.N.O=P(O)(O)O [Ammonium Phosphate] | 6.1 | 7.6 | 8.7 | 4.2 | – | – | – | – | – | – |
| [Ca+2].[OH-].[OH-] [Calcium Hydroxide, reference compound] | 11.9 | 12.1 | 11.9 | 11.8 | – | – | – | – | – | – |
| [Ca+2].[Cl-].[Cl-] [Calcium Chloride] | 4.2 | 6.9 | 9.8 | 9.3 | – | – | – | – | – | – |
| O=S(=O)([O-])[O-].[Mg+2] [Magnesium Sulfate] | 6.2 | 8.6 | 10.2 | 6.5 | – | – | – | – | – | – |
| CC(=O)[O-].CC(=O)[O-].[Ca+2] [Calcium Acetate] | 5.2 | 8.1 | 10.1 | 8.2 | – | – | – | – | – | – |
| O=S(=O)([O-])[O-].O=S(=O)([O-])[O-].O=S(=O)([O-])[O-].[Fe+3].[Fe+3] [Ferric Sulfate] | 1.5 | 7.5 | 9.1 | 1.7 | – | – | – | – | – | – |
| O=S(=O)([O-])[O-].[Ca+2] [Calcium Sulfate] | 4.9 | 8.8 | 10.2 | – | significant drop in pH | latent acidification effect | – | – | – | – |
| O=C([O-])O.[Na+] [Sodium Bicarbonate, reference compound] | – | – | – | – | – | – | 7.5 | 8.8 | 9.4 | 8.3 |
| O=S(=O)([O-])[O-].[Na+].[Na+] [Sodium Sulfate, reference compound] | 6.9 | 8.9 | 10.3 | 9.1 | – | – | – | – | – | – |
| O=[N+]([O-])[O-].O=[N+]([O-])[O-].[Ca+2] [Calcium Nitrate] | 5.2 | 8.6 | 10.1 | 5.3 | – | – | – | – | – | – |
| O=P(O)(O)O [Sodium Phosphate, reference compound] | 7.2 | 8.9 | 10.2 | 9.1 | – | – | – | – | – | – |
| CC(=O)O.N [Ammonium Acetate] | 6.8 | 8.9 | 9.5 | 6.9 | – | – | – | – | – | – |
| [Cl-].[Na+] [Sodium Chloride, reference compound] | – | – | – | – | – | – | 6.7 | 8.7 | 10.1 | 8.1 |
| Calcium Phosphate | 5.4 | 7.2 | 8.6 | 3.7 | – | – | – | – | – | – |
| Cl.N [Ammonium Chloride] | – | – | – | – | – | – | 6.5 | 8.7 | 9.1 | 4.9 |
| [Cl-].[Cl-].[Mg+2] [Magnesium Chloride] | 5.9 | 8.4 | 10.0 | 5.2 | – | – | – | – | – | – |
| N.N.O=S(=O)(O)O [Ammonium Sulfate] | – | – | – | – | – | – | 6.7 | 8.9 | 9.4 | 5.0 |
